{
  "source": "patent US20070259928A1",
  "about": "“Medicinal Composition for Treating Diabetes” (priority 2004, published 2007)",
  "key": {"[1]": {"test_system": "Zucker diabetic fatty (ZDF) rats", "experiment": "Test Example 1: glycosylated hemoglobin ratio after 6 weeks of repeated, timed administration of Compound A and metformin", "assay_type": "in vivo, rat", "settings": "for glycosylated hemoglobin ratio vs control group: 100-150 mg/kg each once daily", "procedure": "Eleven-week old Zucker diabetic fatty (ZDF) rats, that spontaneously developed diabetes mellitus, were grouped into 3 groups (7 rats per group). Feeding was limited to from 17:00 to 9:00, and Compound A and metformin (purchased from Sigma Chemical Co., Ltd.) were repeatedly administered for 6 weeks. Doses of Compound A and metformin were 100-150 mg/kg each once daily, and administered at 9:00 AM (9:00) or 4:00 PM (16:00). In the group administered Compound A at 9:00 AM, metformin was administered at 4:00 PM (AM-Compound A/PM-metformin administered group; Group A), and in the group administered metformin at 9:00 AM, Compound-A was administered at 4:00 PM (AM-metformin/PM-Compound A administered group; Group B). The dose of each compound per day in both groups was fixed at the same. Vehicle alone was administered to the remaining group (control group) twice a day. After repeated administration of the compounds for 6 weeks, blood sample was collected from the tail vein of each rat, and ratios of glycosylated hemoglobin levels in erythrocytes were determined by DCA2000 manufactured by Bayer Medical Ltd. Glycosylated hemoglobin is non-enzymatically formed by binding of glucose to hemoglobin, and the ratio of glycosylated hemoglobin is increased by sustained hyperglycemia. Thus the glycosylated hemoglobin ratio is widely used as an indicator of a long-term therapy (or control of blood glucose levels) in patients with diabetes mellitus. The average and standard error of the glycosylated hemoglobin ratio determined in each group were calculated and are shown in FIG. 1."}, "[2]": {"test_system": "Goto-Kakizaki (GK) rats", "experiment": "Test Example 2: blood glucose lowering rate 4 hours after oral Compound A in fasted and non-fasted rats", "assay_type": "in vivo, rat", "settings": "30 mg/kg oral", "procedure": "Thirty-six-week old Goto-Kakizaki (GK) rats (purchased from Charles River Japan, Inc.), that spontaneously developed diabetes mellitus, were grouped into 4 groups such as “non-fasting control group”, “non-fasting and Compound A administered group”, “fasting control group”, and “fasting and Compound A administered group” (6 rats per group).\nIn Compound A administered groups, Compound A (30 mg/kg) was orally administered, and vehicle alone was administered to two control groups. In addition, rats in two fasting groups were fasted from one day before oral administration of Compound A, and rats in two non-fasting groups were fasted immediately after Compound A was administered [the rats were allowed to take food pellets (FR2, manufactured by Funabashi Farm Co., Ltd.) ad libitum until fasting was started]. Blood sample was collected from the tail vein immediately before and 4 hours after oral administration of Compound A. Blood glucose level was determined by electric potential measurement method based on glucose oxidase immobilized electrode using Glucoloader GXT (A&T Corp.). The blood glucose lowering rate (%) at 4 hours after administration of Compound A against the blood glucose level before administration was calculated in individual rats according to the following equation, and the average blood glucose lowering rate and its standard error in each group are summarized in FIG. 2. [Blood glucose lowering rate(%)]=100×([…])/[blood glucose level before administration]"}},
  "data": [
    {"smiles": "CCOC(=O)[C@H](C)NP(=O)(N[C@@H](C)C(=O)OCC)c1ccc(-c2nc(N)sc2CC(C)C)o1", "note": "[Compound A, 2-amino-5-isobutyl-4-{2-[5-(N,N′-bis((S)-1-ethoxycarbonyl)ethyl)phosphonamido]furanyl}thiazole]", "values": [
      {"measurement": "glycosylated hemoglobin ratio, Group B vs Group A", "setting": "[1]; AM-metformin/PM-Compound A compared with AM-Compound A/PM-metformin, same daily doses, p=0.0330, Tukey test", "value": "improved diabetes mellitus more remarkably"},
      {"measurement": "glycosylated hemoglobin ratio vs control group", "setting": "[1]; Group A: Compound A at 9:00 AM, metformin at 4:00 PM, p=0.0749, Tukey test", "value": "not significantly different from that in the control group"},
      {"measurement": "glycosylated hemoglobin ratio vs control group", "setting": "[1]; Group B: metformin at 9:00 AM, Compound A at 4:00 PM, p=0.0002, Tukey test", "value": "significantly lower than that in the control group"},
      {"measurement": "blood glucose lowering rate at 4 hours after administration vs corresponding control group", "setting": "[2]; GK rats fasted from one day before dosing, p=0.0236, t-test", "value": "significantly reduced"},
      {"measurement": "blood glucose lowering rate at 4 hours, fasting group vs non-fasting group", "setting": "[2]; GK rats, both groups given Compound A, p=0.0158, t-test", "value": "significantly lower"},
      {"measurement": "blood glucose lowering rate at 4 hours after administration vs corresponding control group", "setting": "[2]; non-fasting GK rats, p=0.0196, t-test", "value": "significantly reduced"}
    ]}
  ]
}
